Data reported in patent publication US9682067B2, “Methods of improving cognitive function” (priority 2010, dated 2017).
Like-named read-outs stand apart in the source and are kept apart here.

Columns and labels:
GluR6 receptor = experiment: Complex olfactory discrimination learning in 4-arm maze after injection into the brain ventricles; type: in vivo; settings: rats; 500 nmol into the brain ventricles, evaluation 10 min after daily injection; saline injected rats 8 days; p<0.001
Method: Olfactory discrimination protocol was performed in a 4-arm radial maze, with odors that are frequently used in the food industry (FIG. 1A). FIG. 1A is a schematic description of the 4-arm maze: an electronic ‘start’ command opens randomly two out of eight valves (V), releasing a positive-cue odor (P) into one of the arms and a negative-cue odor (N) into another. Eight seconds later, the two corresponding guillotine doors (D) are lifted to allow the rat to enter the selected arms. Upon reaching the far end of an arm (90 cm long), the rat body interrupts an infrared beam (I, arrow) and a drop of drinking water is released from a water hose (W) into a small drinking well (for a trained rat—only if the arm contains the positive-cue odor, for pseudo-trained rat—randomly). A trial ends when the rat interrupts a beam, or in 10 seconds, if no beam was interrupted. A fan is operated for 15 seconds between trials, to remove odors.
Olfactory training included 20 trials per day. […] A pseudo-trained group of age-matched rats was exposed to the same protocol of training, but with random water rewarding. An age-matched naive group of rats was water-deprived, without exposure to training. A day following memorization of a pair of odors by the rats in the trained group, both trained and pseudo trained groups were trained with a new pair of odors. […]

kainate receptors = experiment: Post-burst AHP amplitude in pyramidal neurons of brain slices after brief kainate exposure; type: cell-based, rat; settings: for averaged AHP amplitude: after ten minutes long exposure to kainate, p<0.05
Method: brain slices of the pirofm cortex hippocampus are prepared and recordings were obtained from pyramidal neurons, with sharp electrodes for current clamp studies of AHP and neuronal adaptation. Data was collected from at least 20 neurons taken for 6 rats or more in each experimental group.
for after-hyper-polarization (AHP) measurement, neurons were depolarized in current clamp mode to Vm of −60 mV with DC current injection, and 100 ms long depolarizing current steps were applied with intensity sufficient to evoke trains of 6 action potentials. AHP amplitude was measured from baseline to the peak of the hyperpolarizing voltage deflection that follows the spike train (FIGS. 2A1 and 2A2). The AHP value was determined from the averaged amplitude in 4-5 consecutive traces, evoked at intervals of 10 sec. FIGS. 2A1 and 2A2 show the same trace on different time scales. Neurons were held at membrane potential of −60 mV and post-burst AHP was generated by 100 ms depolarizing current step injection via the recording electrode, with intensity sufficient to generate a train of 6 action potentials.
These experiments included a brief, ten minutes long, exposure to kainate. […] This decrease outlasted while kainate was present and was always apparent for the total length to kainate exposure (FIG. 8A).
The post burst AHP in neurons from trained rats was not affected by exposure to kainate. The averaged AHP in kainate induced, trained neurons was 6.63±2.4 (n=7).

GluR6 = type: cell-based, mice; settings: 1 sec depolarizing pulse, Ithx2, versus control
Method: For neuronal adaptation measurements, prolonged (1 sec) depolarizing current steps are applied to the neurons via the recording electrode at Vrest, with stimulus intensity of twice IThreshold (FIG. 2B). The firing frequency was measured between each of two spikes in the train, and values were normalized to the initial frequency at which the first two spikes are generated. FIG. 2B is a graph depicting an example for neuronal firing adaptation in layer II pyramidal cell.
FIG. 10B is a bar graph depicting the number of spikes following kainate application in GluR6+/+ and GluR6−/− neurons, as opposed to control, (n) depicts the number of neurons.

Row | Structure (SMILES) | averaged number of training days required for learning completion (GluR6 receptor) | averaged AHP amplitude (kainate receptors; neurons from naive animals, n=16) | averaged AHP amplitude (kainate receptors; neurons from pseudo trained rats, n=7) | effect on post burst AHP (kainate receptors; neurons from trained rats, exposure to kainate) | averaged AHP (kainate receptors; neurons from trained rats, kainate induced, n=7) | number of action potentials (spikes) following kainate application (GluR6; neurons from GluR6 knockout (GluR6-/-) mice) | number of action potentials (spikes) following kainate application (GluR6; neurons of wild type (GluR6+/+) mice)
1 | Cc1onc(O)c1CCC(N)C(=O)O (racemic) [homo-AMPA, (RS)-2-amino-4-(3-hydroxy-5-methylisoxazol-4-yl)butyric acid] | less than five | – | – | – | – | – | –
2 | C=C(C)[C@H]1CN[C@H](C(=O)O)[C@H]1CC(=O)O [kainate, kainic acid] | – | 6.0±2.5 | 6.63 ± 2.4 | not affected | 6.63±2.4 | no effect | doubles
